Tested on: 926638-142-R-J1-PDC complex spheroid viability
Experiment: Anticancer human tumor 926638-142-R-J1-PDC patient-derived endometrial carcinoma cell line growth inhibition [POLQ]
Conditions: for IC50: curve of first compound; for viability, T/C: stronger effect = lower value
Outline: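 Patient-derived tumour cells were co-cultured with HUVEC and mesenchymal stem cells as multicellular spheroids at 37 °C. They were treated with POLQ inhibitors (novobiocin, ART-558, RP6685) alone or combined with other agents. Top concentrations were at or near clinical Cmax (otherwise 10 microM; SN-38 at 1 microM), decreasing in half-log steps.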
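Note: spheroids exposed to drugs for one week before readout.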
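Throughout, for viability, T/C: percent viability relative to DMSO vehicle control wells set as 100%.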

`CC1COCCN1c1cc(C2(S(C)(=N)=O)CC2)nc(-c2ccnc3[nH]ccc23)n1` (configuration not stated) + Cc1cccc(N(C)C(=O)C2C(O)CCN2c2nc(C)cc(C(F)(F)F)c2C#N)c1 gave an IC50 (second compound 0.0316 µM) of 4.55 µM, an IC50 (second compound 0.1 µM) of 5.51 µM and an IC50 (second compound 0.316 µM) of 4.7 µM. The IC50 (second compound 1 µM) was 4.96 µM, the IC50 (second compound 3.16 µM) was 4.39 µM and the IC50 (second compound 10 µM) was 4.05 µM. It also gave a viability, T/C (second compound 0.0316 µM, first compound 0.0316 µM) of 117%, a viability, T/C (second compound 0.0316 µM, first compound 0.1 µM) of 93.9% and a viability, T/C (second compound 0.0316 µM, first compound 0.316 µM) of 93.8%. The viability, T/C (second compound 0.0316 µM, first compound 1 µM) was 101%, the viability, T/C (second compound 0.0316 µM, first compound 3.16 µM) was 59.2% and the viability, T/C (second compound 0.0316 µM, first compound 10 µM) was 30.1%. For the same compound, the viability, T/C (second compound 0.1 µM, first compound 0.0316 µM) was 104%, the viability, T/C (second compound 0.1 µM, first compound 0.1 µM) was 91.2% and the viability, T/C (second compound 0.1 µM, first compound 0.316 µM) was 100%. For the same compound, the viability, T/C (second compound 0.1 µM, first compound 1 µM) was 81.2%, the viability, T/C (second compound 0.1 µM, first compound 3.16 µM) was 76.2% and the viability, T/C (second compound 0.1 µM, first compound 10 µM) was 25.8%. The viability, T/C (second compound 0.316 µM, first compound 0.0316 µM) was 107%, the viability, T/C (second compound 0.316 µM, first compound 0.1 µM) was 90.9% and the viability, T/C (second compound 0.316 µM, first compound 0.316 µM) was 98.6%. For the same compound, the viability, T/C (second compound 0.316 µM, first compound 1 µM) was 79.5%, the viability, T/C (second compound 0.316 µM, first compound 3.16 µM) was 60.7% and the viability, T/C (second compound 0.316 µM, first compound 10 µM) was 29.7%. For the same compound, the viability, T/C (second compound 1 µM, first compound 0.0316 µM) was 117%, the viability, T/C (second compound 1 µM, first compound 0.1 µM) was 101% and the viability, T/C (second compound 1 µM, first compound 0.316 µM) was 96.4%. For the same compound, the viability, T/C (second compound 1 µM, first compound 1 µM) was 110%, the viability, T/C (second compound 1 µM, first compound 3.16 µM) was 60.5% and the viability, T/C (second compound 1 µM, first compound 10 µM) was 33.6%. It also gave a viability, T/C (second compound 3.16 µM, first compound 0.0316 µM) of 91.6%, a viability, T/C (second compound 3.16 µM, first compound 0.1 µM) of 117% and a viability, T/C (second compound 3.16 µM, first compound 0.316 µM) of 95.2%. For the same compound, the viability, T/C (second compound 3.16 µM, first compound 1 µM) was 103%, the viability, T/C (second compound 3.16 µM, first compound 3.16 µM) was 59% and the viability, T/C (second compound 3.16 µM, first compound 10 µM) was 27.4%. For the same compound, the viability, T/C (second compound 10 µM, first compound 0.0316 µM) was 80.4%, the viability, T/C (second compound 10 µM, first compound 0.1 µM) was 112% and the viability, T/C (second compound 10 µM, first compound 0.316 µM) was 87.8%. The viability, T/C (second compound 10 µM, first compound 1 µM) was 89%, the viability, T/C (second compound 10 µM, first compound 3.16 µM) was 56.7% and the viability, T/C (second compound 10 µM, first compound 10 µM) was 25.5%.
